Columns and labels:
[1] = system: constitutively GA-deficient transgenic dwarf soybean line 719; assay: Experiment I greenhouse test, seed imbibition, GA-deficient soybean; format: in vivo, Glycine max; parameters: Observation on Transgenic Line 719: key: −1: treated plants are shorter as compared to untreated plants; 0: treated plants had the same stature as untreated plants; 1: treated plants are slightly elongated as compared to untreated plants; 2: treated plants are moderately elongated as compared to untreated plants; 3: treated plants are highly elongated as compared to untreated plants; 4: treated plants are extremely elongated as compared to untreated plants; conditions: 0.25 mg/ml; for effect in both the constitutive transgenic dwarf and wild-type soybean lines: imbibition, lines 719 and A3237; for Observation on Transgenic Line 719: seeds imbibed 5 hours
Description: Seeds are covered with 0.5″ of vermiculite.

[2] = system: wild-type soybean line A3237; assay: Experiment I greenhouse test, seed imbibition, wild-type soybean; conditions: 0.25 mg/ml; seeds imbibed 5 hours
Protocol: Compounds are first prepared as 25 mg/ml solutions in ethanol as described above, and then diluted into 40 ml of water to prepare the final 0.25 mg/ml treatment solutions. Visual observations on solubilities (milky, clear, etc.) of the treatment solutions are noted. The treatment solutions are divided into two 20 ml portions, each in 50 ml plastic centrifuge tubes. In addition to treating seeds with solutions containing the test compounds, untreated seeds and seeds imbibed in ethanol-water solution (300 μl ethanol in 30 mls of water) are also included in this experiment as controls. […]
(§1) After imbibition, seeds are removed from the test tubes, placed on wax paper to dry, and planted in bread pans containing farm soil amended with fertilizer at 20 seeds/pan. Seeds are covered with 0.5″ of vermiculite. Pans are transferred to the greenhouse, which had day/night temperatures of 86/68° F. (30/20° C.), and subirrigated. Illumination is at a light intensity of 300-400 μmolm^−2s^−1 photosynthetic photon flux; 16 hours light/8 hours dark. Subsequent waterings are also through sub-irrigation until the test is terminated three weeks later. Observations included the number of dwarf, intermediate, and tall plants; plant height; uniformity of rescue; and any visual effects.

[3] = system: constitutively GA-deficient transgenic dwarf soybean line 719; assay: Experiment II second greenhouse test, seed imbibition, GA-deficient soybean; format: in vivo, Glycine max; conditions: seeds imbibed 6 hours
Protocol: (The compounds are tested in Experiment I at only one concentration, i.e., 0.25 mg/ml). Test tubes contained […] of ethanol solution per tube. Final volumes are made up to 30 ml with deionized water. After shaking, the treatment solutions (15 ml each) are transferred to each of two 50 ml test tubes. […] Twenty seeds are used in each treatment. Dry seed, ethanol/water-imbibed seed (1% ethanol in water, v/v), and water-imbibed seeds are included as controls. Seeds are imbibed for 6 hours in the test solutions, then planted in bread pans containing Metromix 350 (The Scotts Company, Marysville, Ohio), and covered with 0.5″ Metro-mix. Covered pans are transferred to the greenhouse and subirrigated. Illumination is at a light intensity of 300-400 μmolm^−2s^−1 photosynthetic photon flux; 16 hours light/8 hours dark. Subsequent waterings are also through sub-irrigation until the test is terminated three weeks later. Observations included the number of dwarf, intermediate, and tall plants; plant height; uniformity of rescue; and any visual effects. Digital photographs are also taken.

[4] = system: wild-type soybeans (line A3237); assay: Summary of first two greenhouse experiments, elongation of wild-type soybeans
Protocol: (§2) Compounds are first prepared as 25 mg/ml solutions in ethanol as described above, and then diluted into 40 ml of water to prepare the final 0.25 mg/ml treatment solutions. Visual observations on solubilities (milky, clear, etc.) of the treatment solutions are noted. The treatment solutions are divided into two 20 ml portions, each in 50 ml plastic centrifuge tubes. In addition to treating seeds with solutions containing the test compounds, untreated seeds and seeds imbibed in ethanol-water solution (300 μl ethanol in 30 mls of water) are also included in this experiment as controls. In the latter case, 20 seeds are imbibed in 30 mls of solution for six hours.
as §1, with “Two soybean varieties are selected for testing: constitutively GA-deficient transgenic dwarf soybean line 719 (plasmid pMON29801, constitutive FMV promoter/asCPScc; which is a mixture of 719−2 and 719+17), and A3237, the wild-type parent material. […] After” for “After”
(§3) All compounds are tested at final concentrations of 0.25, 0.025, and 0.0025 mg/ml except for GA9, which is tested at 0.125, 0.0125, and 0.00125 mg/ml. (The compounds are tested in Experiment I at only one concentration, i.e., 0.25 mg/ml). Test tubes contained […] of ethanol solution per tube. Final volumes are made up to 30 ml with deionized water. After shaking, the treatment solutions (15 ml each) are transferred to each of two 50 ml test tubes. Treatments 1 to 27 are performed on wild-type line A3237; treatments 28 to 54 are performed on constitutively GA-deficient transgenic dwarf soybean line 719 (a mixture of 719−2 and 719+17). Twenty seeds are used in each treatment. Dry seed, ethanol/water-imbibed seed (1% ethanol in water, v/v), and water-imbibed seeds are included as controls. Seeds are imbibed for 6 hours in the test solutions, then planted in bread pans containing Metromix 350 (The Scotts Company, Marysville, Ohio), and covered with 0.5″ Metro-mix. Covered pans are transferred to the greenhouse and subirrigated. Illumination is at a light intensity of 300-400 μmolm^−2s^−1 photosynthetic photon flux; 16 hours light/8 hours dark. Subsequent waterings are also through sub-irrigation until the test is terminated three weeks later. Observations included the number of dwarf, intermediate, and tall plants; plant height; uniformity of rescue; and any visual effects. Digital photographs are also taken.

[5] = system: constitutively GA-deficient transgenic dwarf soybeans (line 719); assay: Summary of first two greenhouse experiments, rescue of GA-deficient soybeans; format: in vivo, Glycine max; parameters: key: +: transgenic soybeans are rescued; 0: transgenic soybeans are not rescued
Protocol: as §2
as §1, with “Two soybean varieties are selected for testing: constitutively GA-deficient transgenic dwarf soybean line 719 (plasmid pMON29801, constitutive FMV promoter/asCPScc; which is a mixture of 719−2 and 719+17), and A3237, the wild-type parent material. […] After” for “After”
as §3

[6] = Particulate material present in solutions after mixing; format: physicochemical
Protocol: Each of the compounds noted above is weighed to the nearest 0.1 mg in a pre-tarred 1.5-ml polypropylene vial with a screw-top lid. Absolute ethanol is added to the weighed powder to prepare a 25 mg/ml solution. Solutions are thoroughly mixed using a vortex mixer. A stainless steel spatula is used to crush any particulate material remaining after extensive mixing. Vials are left overnight at room temperature, and then remixed to form the concentrated ethanol stock solutions. The presence of undissolved material is noted throughout this procedure.

[7] = system: GA-deficient transgenic soybean line 719 (R5); assay: Hilum treatment of soybean seeds, seedling growth and development, GA-deficient soybean; format: in vivo, Glycine max; parameters: key to Emergence timing / Hypocotyl length (6 DAP) / 1st internode length (12 DAP) / 3rd internode length (20 DAP) / 2nd internode length (12 DAP): pos: emergence faster/stem segment longer than controls; 0: emergence timing/stem segment length similar to controls; neg: emergence slower/stem segment shorter than controls; conditions: for Lowest rate where biological activity is observed, 1st internode length (10 DAP) / Lowest rate where biological activity is observed, emergence timing / Lowest rate where biological activity is observed, hypocotyl length (5 DAP) / 1st internode length (12 DAP) / Emergence timing / Hypocotyl length (6 DAP): L719, hilum treatment; for Lowest rate where biological activity is observed, 1st internode length (10 DAP) / Lowest rate where biological activity is observed, emergence timing / Lowest rate where biological activity is observed, hypocotyl length (5 DAP): rate response; for 1st internode length (12 DAP) / Emergence timing / Hypocotyl length (6 DAP): single rate per compound 8.3-16.5 μg/seed; for activity on line 719 in terms of emergence timing and hypocotyl length: single rate, concentration that does not affect normal plant tissue
Protocol: (§4) In the previous experiments, the effect of various GA compounds on transgenic, GA-deficient and wild-type soybean is evaluated by treating seeds with these compounds via imbibition. Several of these compounds are not completely soluble in water, which limited the interpretation of their utility in rescuing GA-deficient dwarf plants. The purpose of this experiment is to reevaluate selected, previously tested compounds, and additional compounds, by introducing them to the seed via the hilum. As shown by the results presented below, direct application of small quantities of GA compounds dissolved in an organic solvent to the hilum is an effective method of treating soybean seeds. As in the previously described experiments, comparison is made between activity on GA-deficient soybean seedlings and normal (wild-type) seedlings. […] soybean seeds are supplied by Asgrow Seed Company (Des Moines, Iowa). Seed of GA-deficient transgenic soybean line 719 is created by transformation of […] soybean with pMON29801 (FMV/antisense CPScc). Fifth generation seed (R5) is used for these experiments. […] When multiple droplets are applied, each 1 μl droplet is allowed to dry before subsequent droplets are added. Ethanol minus compound is used a treatment control. […] (29° C.) and 75° F. (24° C.), respectively. Emergence timing is measured by counting the number of emerged seedlings at different times after planting. Emergence is defined as the presence of cotyledons raised to soil level or above. […] To assess the ability of a seed treatment to deliver biological activity beyond the first internode, measurements are taken on selected treatments after prolonged growth and development.

wild-type A3237 soybean = assay: Hilum treatment of soybean seeds, seedling growth and development, wild-type soybean; format: in vivo, Glycine max; parameters: key to Emergence timing / Hypocotyl length (6 DAP) / 1st internode length (12 DAP) / 3rd internode length (20 DAP): pos: emergence faster/stem segment longer than controls; 0: emergence timing/stem segment length similar to controls; neg: emergence slower/stem segment shorter than controls; conditions: for Lowest rate where biological activity is observed, 1st internode length (10 DAP) / Lowest rate where biological activity is observed, emergence timing / Lowest rate where biological activity is observed, hypocotyl length (5 DAP): rate response; for 1st internode length (12 DAP) / Emergence timing / Hypocotyl length (6 DAP): single rate per compound 8.3-16.5 μg/seed
Protocol: as §4

[8] = 0.0025 mg/ml solution (ethanol-water)
[9] = 0.025 mg/ml solution (ethanol-water)
[10] = 0.25 mg/ml solution (ethanol-water)

SMILES: C=C1C[C@]23C[C@@]1(O)CC[C@H]2[C@@]12CCC[C@@](C)(C(=O)O1)[C@H]2[C@@H]3C(=O)O [GA20]
- effect in both the constitutive transgenic dwarf and wild-type soybean lines [1]: excessive elongation
- Observation on Transgenic Line 719 [1]: 4
- Observation on Wild-Type Line A3237 [2]: 4
- Significant Visual Observations on Line 719 ([3]; 0.0025 mg/ml): Good rescue of dwarfs
- Significant Visual Observations on Line 719 ([3]; 0.025 mg/ml): Good rescue of dwarfs
- Significant Visual Observations on Line 719 ([3]; 0.25 mg/ml): Excessive elongation
- Elongation of wild-type soybeans [4, 8]: +
- Elongation of wild-type soybeans [4, 9]: +
- Elongation of wild-type soybeans [4, 10]: +
- Rescue of GA-deficient soybeans [5, 8]: +
- Rescue of GA-deficient soybeans [5, 9]: +
- Rescue of GA-deficient soybeans [5, 10]: +

SMILES: C=C1C[C@]23C[C@H]1CC[C@H]2[C@@]12CC[C@H](O)[C@@](C)(C(=O)O1)[C@H]2[C@@H]3C(=O)OC [GA4 methyl ester]
- effect in both the constitutive transgenic dwarf and wild-type soybean lines [1]: slight to medium elongation
- Observation on Transgenic Line 719 [1]: 1
- Observation on Wild-Type Line A3237 [2]: 1
- solubility in water during imbibition ([6]; 0.25 mg/ml treatment solutions): less soluble in water during imbibition
- Rescue of GA-deficient soybeans [5, 10]: 0

SMILES: C=C1C[C@]23C[C@@]1(O)CC[C@H]2[C@]1(C)CCC[C@@](C)(C(=O)O)[C@H]1[C@@H]3C(=O)O [GA53]
- Lowest rate where biological activity is observed, 1st internode length (10 DAP) [7]: >10 μg/seed
- Lowest rate where biological activity is observed, emergence timing [7]: 1 μg/seed
- Lowest rate where biological activity is observed, hypocotyl length (5 DAP) [7]: 1 μg/seed
- 1st internode length (12 DAP) [7]: 0
- Emergence timing [7]: pos
- Hypocotyl length (6 DAP) [7]: pos
- activity on line 719 in terms of emergence timing and hypocotyl length ([7]; hilum): biologically active
- Lowest rate where biological activity is observed, 1st internode length (10 DAP) (wild-type A3237 soybean): >10 μg/seed
- Lowest rate where biological activity is observed, emergence timing (wild-type A3237 soybean): >10 μg/seed
- Lowest rate where biological activity is observed, hypocotyl length (5 DAP) (wild-type A3237 soybean): >10 μg/seed
- 1st internode length (12 DAP) (wild-type A3237 soybean): neg
- Emergence timing (wild-type A3237 soybean): 0
- Hypocotyl length (6 DAP) (wild-type A3237 soybean): 0

SMILES: C=C1C[C@]23C[C@@]1(O)CC[C@H]2[C@@]12CC[C@H](O)[C@@](C)(C(=O)O1)[C@H]2[C@@H]3C(=O)O [GA1]
- effect in both the constitutive transgenic dwarf and wild-type soybean lines [1]: excessive elongation
- Observation on Transgenic Line 719 [1]: 4
- Observation on Wild-Type Line A3237 [2]: 4
- Significant Visual Observations on Line 719 ([3]; 0.0025 mg/ml): Good rescue of dwarfs
- Significant Visual Observations on Line 719 ([3]; 0.025 mg/ml): Good rescue of dwarfs
- Elongation of wild-type soybeans [4, 8]: −
- Elongation of wild-type soybeans [4, 9]: +
- Elongation of wild-type soybeans [4, 10]: +
- Rescue of GA-deficient soybeans [5, 8]: +
- Rescue of GA-deficient soybeans [5, 9]: +
- Rescue of GA-deficient soybeans [5, 10]: +

SMILES: C=C1C[C@]23C[C@H]1CC[C@H]2[C@@]12CC[C@H](O)[C@@](C)(C(=O)O1)[C@H]2[C@@H]3C(=O)O [GA4]
- effect in both the constitutive transgenic dwarf and wild-type soybean lines [1]: slight to medium elongation
- Observation on Transgenic Line 719 [1]: 2
- Observation on Wild-Type Line A3237 [2]: 2
- Elongation of wild-type soybeans [4, 10]: +
- Rescue of GA-deficient soybeans [5, 10]: +

SMILES: C=C1C[C@@]23CC[C@@H]4[C@](C)(CO)CCC[C@@]4(C)[C@@H]2CC[C@@H]1C3 [kaurenol]
- Lowest rate where biological activity is observed, 1st internode length (10 DAP) [7]: >100 μg/seed
- Lowest rate where biological activity is observed, emergence timing [7]: >100 μg/seed
- Lowest rate where biological activity is observed, hypocotyl length (5 DAP) [7]: >100 μg/seed
- 1st internode length (12 DAP) [7]: 0
- Emergence timing [7]: pos
- Hypocotyl length (6 DAP) [7]: pos
- confirmation of activity previously observed ([7]; rate up to 100 ng/seed, hilum): not confirmed
- activity on line 719 in terms of emergence timing and hypocotyl length ([7]; hilum): biologically active
- Lowest rate where biological activity is observed, 1st internode length (10 DAP) (wild-type A3237 soybean): >100 μg/seed
- Lowest rate where biological activity is observed, emergence timing (wild-type A3237 soybean): >100 μg/seed
- Lowest rate where biological activity is observed, hypocotyl length (5 DAP) (wild-type A3237 soybean): >100 μg/seed
- 1st internode length (12 DAP) (wild-type A3237 soybean): 0
- Emergence timing (wild-type A3237 soybean): 0
- Hypocotyl length (6 DAP) (wild-type A3237 soybean): 0

SMILES: C=C1C[C@]23C[C@H]1CC[C@H]2[C@@]12C=C[C@H](O)[C@@](C)(C(=O)O1)[C@H]2[C@@H]3C(=O)OC [GA7 methyl ester]
- effect in both the constitutive transgenic dwarf and wild-type soybean lines [1]: slight to medium elongation
- Observation on Transgenic Line 719 [1]: 2
- Observation on Wild-Type Line A3237 [2]: 1
- Particulate material present, 100X Diln w/water ([6]; 0.25 mg/ml compound in water): YES
- Rescue of GA-deficient soybeans [5, 10]: 0
